Results taken from patent US11351145B2, “Quercetin-based composition for treating rhinosinusitis” (APHABIO THERAPEUTICS, priority 2017, dated 2022).
Marks after values point to notes of the source that are not given here.

What was measured:
Assay type in all cases: in vivo, rabbit
[1] = test system: rhinosinusitis induced by lipopolysaccharide (LPS); assay: Histological scoring of sino-nasal inflammation (score 0-3) in rabbits with LPS-induced rhinosinusitis; conditions: for Epithelial desquamation / Mucous gland damage: score 0-3 (0 absence of damage, 1 slightly, 2 moderately, 3 strongly damaged); for Epithelial desquamation / Mucous gland damage / Leukocyte infiltrate of mucous membrane / Mononuclear infiltrate of mucous membrane: median (1st; 3rd quartile), n = 6; for Epithelial desquamation / Mucous gland damage / Leukocyte infiltrate of mucous membrane / Mononuclear infiltrate of mucous membrane / Inflammation degree in different zones: Olfactory region / Inflammation degree in different zones: Respiratory region / Inflammation degree in different zones: Vestibule / Inflammation type: Post-inflammatory hyperplasia of goblet cells / Inflammation type: acute catarrhal rhinosinusitis / Inflammation type: acute purulent rhinosinusitis: intranasal once daily for seven days; for Leukocyte infiltrate of mucous membrane / Mononuclear infiltrate of mucous membrane: score 0-3 (0 none, 1: 1 to 5, 2: 6 to 10, 3: more than 10 cells in the zone); for Inflammation degree in different zones: Olfactory region / Inflammation degree in different zones: Respiratory region / Inflammation degree in different zones: Vestibule / Inflammation type: Post-inflammatory hyperplasia of goblet cells / Inflammation type: acute catarrhal rhinosinusitis / Inflammation type: acute purulent rhinosinusitis: scoring from 0 to 3, median (quartiles); for Overall therapeutic effect / activity against rhinosinusitis: conclusion of the histological examination, compared to non-treated or placebo-treated animals
Procedure: (§1) 42 male rabbits were used in this study. Animals were separated into seven groups, each containing six rabbits. The 1st group served as an untreated control, the second group was treated with a 0.9% NaCl solution, and five experimental groups were used to test the different formulations: onion peel extract, quercetin+2-(3,4-dihydroxybenzoyl)-2,4,6-trihydroxy-3(2H)-benzofuranone quercetin, quercetin-4′-glycoside and protocatechuic acid.
(§2) Rhinosinusitis was induced by introduction of 100 μL of 1% lipopoysaccharide (LPS) in each nasal cavity of the rabbits for three days (Dong-Hyun Kim et all, 2011).
(§3) The following concentrations of composition were tested:
(§4) onion peel water extract—1 mg/mL;
(§5) the mixture of quercetin—0.009 mg/mL and 2-(3,4-dihydroxybenzoyl)-2,4,6-trihydroxy-3(2H)-benzofuranone—0.001 mg/mL;
(§6) quercetin-4′-glycoside—0.25 mg/mL;
(§7) protocatechuic acid—0.25 mg/mL.
(§8) The compounds were diluted in solutions of 0.9-1% sodium chloride or in the solution containing 0.75% NaCl+0.25% NaHCO3 heated to 37° C. before administration. Except for the mixture of quercetin+2-(3,4-dihydroxybenzoyl)-2,4,6-trihydroxy-3(2H)-benzofuranone, which was suspension, all formulations were slightly opalescent-colored solutions.
(§9) 2 mL of the solutions was administered intranasally in each nasal cavity once daily for seven days. In order to get the maximal contact of nasal cavity with the tested substances, rabbits were kept in the “head down” position during administration.
(§10) The day after the last administration of the substances, animals were sacrificed by an overdose of a general anesthetics: Zoletil (Virbac, France) and Rometar (Bioveta, Czech Republic).
(§11) After macroscopic examinations, the nasal parts of rabbits' heads were fixed in 10% formaldehyde for 24 hours, then decalcified for 14 days in a hydrochloric acid/water (25:1) solution. Then, the noses of the animals were sectioned transversally at four levels: A—at the incisors; B— in a zone posterior to the incisors, C— at the second palatal ridge, and D—at the first premolar tooth. Tissues were then washed with water for 12 hours and embedded in paraffin using conventional methods. Histological sections of 3-5 μm were prepared from these tissues using microtome. In order to examine goblet cells and their glucosamine content, the tissue sections were stained with alcian blue at pH 2.5. Some tissue sections were re-stained with haematoxylin and eosin for further histological examinations.
(§12) Morphological investigation of histological preparations was performed using optical microscope CarlZeissAxioScopeA1 (Germany) at magnifications of 25×, 50×, 100×, 200× and 400×. Microphotographs of samples were taken using a digital camera AxioCamlCc 1 and AxioVisionRel.4.8 software (Germany). Morphometric measurements were taken using AxioVisionRel.4.8 software (Germany).
The appearance, severity of acute catarrhal rhinosinusitis, acute purulent rhinosinusitis and occurrence of post-inflammatory hyperplasia of goblet cells were evaluated by examining the degree of inflammatory lesions in various zones: vestibule, respiratory region, olfactory region and paranasal sinuses.
The degree of epithelial desquamation and mucociliary gland damage was scored along a scale from 0 to 3, where:
The degree of mononuclear and leukocyte cell infiltration was evaluated by scoring from 0 to 3, where:
0—no mononuclear cells present in the zone of examination;
1—1 to 5 mononuclear cells present in the zone of examination;
2—6 to 10 mononuclear cells present in the zone of examination;
3—more than 10 mononuclear cells present in the zone of examination.
All data were analyzed using descriptive statistics. The normality of data distribution was verified by Shapiro-Wilks test. In the case of normality, the mean and the standard error of the mean (s.e.m) were calculated and presented in tables together with n (number of values). […] The differences between groups were analyzed using parametric or non-parametric tests depending on the distribution type. […]

[2] = test system: rhinosinusitis induced by lipopolysaccharide (LPS); assay: Goblet cell morphometric study (alcian blue staining) in rabbits with LPS-induced rhinosinusitis; conditions: for Number of alcian positive cells on 1 mm of epithelium / Number of goblet cells on 1 mm of epithelium / Ratio of alcian positive cells to total number of goblet cells, in %: rabbits, 2 mL intranasally in each nasal cavity once daily for seven days, M ± s.e.m., n = 6
Procedure: as §1, §2, §3, §4, §5, §6, §7, §8, §9, §10, §11, §12
Goblet cells were counted within 1 mm of the respiratory zone of the epithelium.
All data were analyzed using descriptive statistics. The normality of data distribution was verified by Shapiro-Wilks test. In the case of normality, the mean and the standard error of the mean (s.e.m) were calculated and presented in tables together with n (number of values). […] The differences between groups were analyzed using parametric or non-parametric tests depending on the distribution type. The analysis of normally distributed data was done using the unifactorial dispersion analysis test (ANOVA), and further post-hoc analysis was done using Tukey's method. The data not corresponding to the normal distribution were analyzed using the non-parametric Kruskal-Wallis test, and the differences between groups were analyzed using the Mann-Whitney test. The difference was determined at a significance level of 0.05.

[3] = test system: rhinosinusitis induced by lipopolysaccharide (LPS); assay: Visual (macroscopic) examination of rabbits with LPS-induced rhinosinusitis; conditions: in words; after seven days of treatment
Procedure: as §1, §2, §8, §9
The nasal cavities of the animals were subjected to visual examinations immediately after euthanasia.

O=c1c(O)c(-c2ccc(O)c(O)c2)oc2cc(O)cc(O)c12 [Quercetin, quercetin]
Acute purulent rhinosinusitis (observation) ([1]; in words): no sign
Post-inflammatory hyperplasia of the goblet cells (observation) ([1]; in words): no sign
Epithelial desquamation [1]: 0.5(0.0; 1.0) score
Mucous gland damage [1]: 0.5(0.0; 2.0) score
Leukocyte infiltrate of mucous membrane [1]: 2.0(2.0; 2.0) score
Mononuclear infiltrate of mucous membrane [1]: 1.0 (1.0; 1.0) score
Inflammation degree in different zones: Olfactory region [1]: 1.0
Inflammation degree in different zones: Respiratory region [1]: 2.0
Inflammation degree in different zones: Vestibule [1]: 0.0
Inflammation type: Post-inflammatory hyperplasia of goblet cells [1]: 0.0
Inflammation type: acute catarrhal rhinosinusitis [1]: 2.0
Inflammation type: acute purulent rhinosinusitis [1]: 0.0
Number of alcian positive cells on 1 mm of epithelium [2]: 21.3 ± 6.49
Number of goblet cells on 1 mm of epithelium [2]: 43.0 ± 6.46
Ratio of alcian positive cells to total number of goblet cells, in % [2]: 47.2 ± 12.33%
Macroscopic (visual) examination findings [3]: No external changes were observed

O=c1c(O)c(-c2ccc(O[C@@H]3O[C@H](CO)[C@@H](O)[C@H](O)[C@H]3O)c(O)c2)oc2cc(O)cc(O)c12 [Quercetin-4′-glycoside, quercetin-4′-glycoside]
Epithelial desquamation (observation) ([1]; in words): not observed
Overall therapeutic effect / activity against rhinosinusitis ([1]; in words): moderate activity
Epithelial desquamation [1]: 0.0(0.0; 0.0)* score
Mucous gland damage [1]: 0.0(0.0; 1.0) score
Leukocyte infiltrate of mucous membrane [1]: 1.0(1.0; 2.0) score
Mononuclear infiltrate of mucous membrane [1]: 1.0 (1.0; 1.0) score
Inflammation degree in different zones: Olfactory region [1]: 0.5
Inflammation degree in different zones: Respiratory region [1]: 1.0
Inflammation degree in different zones: Vestibule [1]: 0.0
Inflammation type: Post-inflammatory hyperplasia of goblet cells [1]: 1.0
Inflammation type: acute catarrhal rhinosinusitis [1]: 1.0
Inflammation type: acute purulent rhinosinusitis [1]: 0.0
Change in the number of goblet cells on 1 mm of epithelium compared to control ([2]; in words, ANOVA and Tukey's test): Increase
Number of alcian positive cells on 1 mm of epithelium [2]: 21.8 ± 6.78
Number of goblet cells on 1 mm of epithelium [2]: 65.6 ± 6.03
Ratio of alcian positive cells to total number of goblet cells, in % [2]: 35.8 ± 11.13%
Macroscopic (visual) examination findings [3]: No external changes were observed

O=C(O)c1ccc(O)c(O)c1 [Protocatechuic acid, protocatechuic acid]
Leucocyte cell infiltration of the mucous membranes versus control group ([1]; in words, Kruskal-Wallis and Mann-Whitney tests): lower than in control group
Overall therapeutic effect / activity against rhinosinusitis ([1]; in words): moderate activity
Epithelial desquamation [1]: 0.0(0.0; 1.0) score
Mucous gland damage [1]: 1.0(0.0; 1.0) score
Leukocyte infiltrate of mucous membrane [1]: 0.5(0.0; 1.0)* score
Mononuclear infiltrate of mucous membrane [1]: 1.0 (1.0; 1.0) score
Inflammation degree in different zones: Olfactory region [1]: 1.0
Inflammation degree in different zones: Respiratory region [1]: 1.0
Inflammation degree in different zones: Vestibule [1]: 0.0
Inflammation type: Post-inflammatory hyperplasia of goblet cells [1]: 0.5
Inflammation type: acute catarrhal rhinosinusitis [1]: 1.0
Inflammation type: acute purulent rhinosinusitis [1]: 0.0
Number of alcian positive cells on 1 mm of epithelium [2]: 16.3 ± 5.82
Number of goblet cells on 1 mm of epithelium [2]: 44.0 ± 6.76
Ratio of alcian positive cells to total number of goblet cells, in % [2]: 35.0 ± 9.01%
Macroscopic (visual) examination findings [3]: No external changes were observed
